14 compounds from patent publication US20040044037A1, “Amidino-urea serotonin receptor ligands and compositions, their pharmaceutical uses, and methods for their snythesis” (priority 2003, published 2004) can be followed below.

Like-named read-outs stand apart in the source and are kept apart here.

In one experiment the target is T1, human 5-HT1a receptors (Homo sapiens, UniProt P08908).
T1 construct: expressed in transfected cells; host or cells: CHO K1 cells
T1 sequence (P08908 1-422): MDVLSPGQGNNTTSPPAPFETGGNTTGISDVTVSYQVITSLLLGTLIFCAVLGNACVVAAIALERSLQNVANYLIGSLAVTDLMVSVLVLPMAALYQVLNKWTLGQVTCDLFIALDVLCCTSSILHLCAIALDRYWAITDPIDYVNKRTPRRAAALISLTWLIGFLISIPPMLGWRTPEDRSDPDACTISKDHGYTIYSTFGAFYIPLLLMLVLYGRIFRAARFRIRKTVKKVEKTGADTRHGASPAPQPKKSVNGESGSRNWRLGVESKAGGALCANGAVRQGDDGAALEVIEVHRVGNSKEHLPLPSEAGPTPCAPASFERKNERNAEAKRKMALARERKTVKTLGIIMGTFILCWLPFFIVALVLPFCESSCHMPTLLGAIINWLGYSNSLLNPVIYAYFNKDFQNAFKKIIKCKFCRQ
Put plainly: Competition radioligand binding, h5-HT1a. The procedure: Cells and Membrane Preparation: HEK 293 cells stably expressing human 5-HT7B (h5-HT7b) receptors were grown in Dulbecco's Modified Eagle's Medium (DMEM; Gibco) without sodium pyruvate and containing 4.5 g/L glucose, L-glutamine/penicillin-streptomycin (Gemini), 10% fetal bovine serum and 250 mg/l of the antibiotic, G418 (Geneticin) as previously described (Jasper, J. R., Kosaka, A., To, Z. P., Chang, D. J. and Eglen, R. M. (1997) Cloning, expression and pharmacology of a truncated splice variant of the human 5-ht7 receptor (h5-ht7b). Br. J. Pharmacol. 122(1):126-132.). Cell pellets were homogenized in approximately 50 mL of homogenization buffer (buffer A) containing: 50 mM Tris (pH 7.4), 2 mM EGTA, 0.32 M sucrose, 10 μM PMSF, 1 μg/mL leupeptin, 5 μg/mL Pepstatin A, and 5 μg/mL aprotinin using an UltraTurax homogenizer (Tekmar Company, Cincinnati, Ohio) at 80% maximum setting three times for 10 sec. Cell pellets were centrifuged at 4° C. at 1,500×g for 10 min in a Beckman GS-6R centrifuge. Pellets were resuspended in buffer A, homogenized and centrifuged as described above. Pooled supernatants were transferred to centrifuge bottles and centrifuged at 4° C. at 20,000×g for 30 min in a Beckman J2-HS centrifuge. Cell pellets were resuspended in buffer A and were centrifuged at 4° C. at 20,000×g for 30 min. Cell pellets were resuspended in buffer A and stored at −70° C. in aliquots of 2.5 mg/mL total membrane protein. Total membrane protein was assessed utilizing a BCA kit (Pierce; Rockford, Ill.). Membranes containing human 5-HT1a or 5HT2a receptors expressed in CHO K1 cells were prepared as described above.
Radioligand Binding Assays: For 5-HT7 saturation binding experiments, HEK-293 cell membranes expressing h5-HT7 receptors (5-10 μg membrane protein/well) were incubated in duplicate with [^3H]5-CT (approximately 0.2 nM) in binding assay buffer containing: 50 mM HEPES (pH 7.4), 0.5 mM EDTA, 10 mM MgCl2, 10 μM pargyline to inhibit monoamine oxidase activity, and 0.1% sodium ascorbate, in a final volume of 200 μL in 96-well polypropylene plates for 2 hours at 37° C. Nonspecific binding was determined by incubating membranes with 1 μM 5-HT. All radioligand binding assays were stopped by rapid filtration onto 96-well GF/C filter plates (Packard) soaked in 0.1% polyethylenimine. Filters were washed three times with ice-cold phosphate-buffered saline (PBS) wash buffer containing 50 mM NaPO4 (pH 7.4), 0.9% NaCl, 2 mM MgCl2 and 0.02% NaN3. The filters were then counted using liquid scintillation in a Packard Topcount scintillation counter.
Data Analysis: Radioligand binding experiments were analyzed with Prism™ (Graphpad, San Diego, Calif.), a computer graphics and statistics program. IC50 values and Hill slopes for compounds were generated by nonlinear regression using Prism™. Values for Ki calculated from IC50 values by the Cheng and Prussoff equation (Cheng, Y. and Prusoff, W. H., (1973), “Relationship between the inhibition constant (Ki) and the concentration of inhibitor which causes 50 per cent inhibition (I50) of an enzymatic reaction.” Biochemical Pharmacol. 22:3099-3108).

The target in experiment [1] is T2, human D2S dopamine (hD2S-DA) receptors (Homo sapiens, UniProt P14416).
T2 construct: purchased Receptor Biology, Inc. (Beltsville, Md.); host or cells: A9 L cells
T2 sequence (P14416 1-414 isoform P14416-2): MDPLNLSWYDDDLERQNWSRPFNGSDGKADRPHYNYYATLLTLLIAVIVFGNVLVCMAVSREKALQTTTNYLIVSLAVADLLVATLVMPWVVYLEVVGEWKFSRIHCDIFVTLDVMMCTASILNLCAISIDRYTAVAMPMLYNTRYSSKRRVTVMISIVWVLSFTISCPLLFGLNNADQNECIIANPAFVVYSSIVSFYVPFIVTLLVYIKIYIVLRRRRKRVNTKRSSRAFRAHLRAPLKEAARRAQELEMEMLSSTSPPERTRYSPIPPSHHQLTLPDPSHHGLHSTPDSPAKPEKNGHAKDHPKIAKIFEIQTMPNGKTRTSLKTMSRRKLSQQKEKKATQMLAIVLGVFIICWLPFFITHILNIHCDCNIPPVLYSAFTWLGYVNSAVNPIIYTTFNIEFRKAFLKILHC
Nature of the experiment: Competition radioligand binding, hD2S dopamine.

Experiment [2] addresses T3, human 5-HT7B (h5-HT7b) receptors (Homo sapiens, UniProt P34969).
T3 construct: expressed in transfected cells
Nature of the experiment: Competition radioligand binding, h5-HT7b. In outline: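 Membranes from HEK 293 cells stably expressing human 5-HT7b incubated with ~0.2 nM [3H]5-CT and varying compound 2 h at 37 °C in HEPES buffer pH 7.4 with pargyline. Nonspecific binding with 1 μM 5-HT; filtration, scintillation counting; IC50 by nonlinear regression converted to Ki via Cheng–Prusoff.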

The target in a further experiment is T4, human 5HT2a receptors (Homo sapiens, UniProt P28223).
T4 construct: expressed in transfected cells; host or cells: CHO K1 cells
T4 sequence (P28223 whole entry): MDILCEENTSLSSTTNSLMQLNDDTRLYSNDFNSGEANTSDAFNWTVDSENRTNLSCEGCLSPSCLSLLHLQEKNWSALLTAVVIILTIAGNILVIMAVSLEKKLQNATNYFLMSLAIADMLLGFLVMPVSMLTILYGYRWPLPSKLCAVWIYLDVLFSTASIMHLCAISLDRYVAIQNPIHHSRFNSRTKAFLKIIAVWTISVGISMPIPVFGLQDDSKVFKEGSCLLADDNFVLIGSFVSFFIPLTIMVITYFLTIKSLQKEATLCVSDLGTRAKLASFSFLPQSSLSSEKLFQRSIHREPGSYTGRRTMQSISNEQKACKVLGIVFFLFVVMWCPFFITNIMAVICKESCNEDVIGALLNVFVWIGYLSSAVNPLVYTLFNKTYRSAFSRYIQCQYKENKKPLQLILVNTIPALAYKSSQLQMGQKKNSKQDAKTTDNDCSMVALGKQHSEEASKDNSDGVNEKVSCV
Nature of the experiment: Competition radioligand binding, 5-HT2A. In outline:
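Human 5-HT1a and 5-HT2a receptors were expressed in CHO K1 cell membranes. Competition binding was stopped by filtration onto PEI-soaked GF/C filters and counted by liquid scintillation. IC50 values and Hill slopes came from nonlinear regression, and Ki was calculated by Cheng–Prusoff.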

For experiment [3], the target named is T5, human 5-HT6 (h5-HT6) receptors (Homo sapiens, UniProt P50406).
T5 construct: purchased Receptor Biology, Inc. (Beltsville, Md.); host or cells: HEK-293 cells
T5 sequence (P50406 whole entry): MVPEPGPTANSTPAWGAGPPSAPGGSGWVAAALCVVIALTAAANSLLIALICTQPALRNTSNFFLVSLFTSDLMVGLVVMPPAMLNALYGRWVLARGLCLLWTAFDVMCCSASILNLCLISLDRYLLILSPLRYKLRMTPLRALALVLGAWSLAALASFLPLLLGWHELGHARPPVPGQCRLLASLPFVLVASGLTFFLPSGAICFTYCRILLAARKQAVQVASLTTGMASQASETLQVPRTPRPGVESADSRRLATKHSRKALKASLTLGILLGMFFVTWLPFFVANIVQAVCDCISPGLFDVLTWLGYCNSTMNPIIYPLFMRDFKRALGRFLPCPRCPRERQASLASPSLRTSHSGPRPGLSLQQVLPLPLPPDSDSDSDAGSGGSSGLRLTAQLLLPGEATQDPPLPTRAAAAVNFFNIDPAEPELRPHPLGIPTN
Put plainly: Competition radioligand binding, h5-HT6.

Where [4] appears, read: [3H]5-CT, membranes of CHO K1 cells, read-out: Ki 5-HT1A.
Setting [5] is: [3H]Spiperone, membranes of A9 L cells, read-out: Ki D2.
Setting [6] is: [3H]5-CT, membranes of HEK 293 cells, read-out: Ki 5-HT7.
[7] abbreviates: [3H]Ketanserin, membranes of CHO K1 cells, read-out: Ki 5-HT2A.
The mark [8] stands for this setting: [3H]LSD, membranes of HEK-293 cells, read-out: Ki 5-HT6.

T3 sequence (P34969 1-432 limits assumed): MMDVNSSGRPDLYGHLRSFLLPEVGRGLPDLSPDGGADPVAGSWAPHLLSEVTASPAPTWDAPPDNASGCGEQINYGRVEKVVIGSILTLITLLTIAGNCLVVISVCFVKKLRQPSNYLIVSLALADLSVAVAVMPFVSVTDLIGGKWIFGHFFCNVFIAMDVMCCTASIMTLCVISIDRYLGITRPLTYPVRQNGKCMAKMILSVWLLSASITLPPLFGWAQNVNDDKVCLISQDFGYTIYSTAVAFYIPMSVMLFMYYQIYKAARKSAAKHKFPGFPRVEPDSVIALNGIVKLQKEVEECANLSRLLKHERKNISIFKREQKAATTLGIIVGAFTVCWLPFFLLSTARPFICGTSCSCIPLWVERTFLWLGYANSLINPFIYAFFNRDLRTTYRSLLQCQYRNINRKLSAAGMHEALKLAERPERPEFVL

As a reminder, the Ki is a measure of affinity in units of concentration, obtained from inhibition or displacement. For the compound `N=C(NCc1cccc2ccccc12)NC(=O)NCC1CCN(Cc2cccc(Cl)c2)CC1` [Example 73, 1-(3-Chlorobenzyl)-4-({[({imino[(1-naphthylmethyl)amino]methyl}amino)carbonyl]amino}methyl)piperidine], the Ki at human 5-HT1a receptors (setting [4]) is 0.39 µM; in experiment [1] (setting [5]) it was 0.83 µM; in experiment [2] (setting [6]), 0.021 µM; on human 5HT2a receptors (setting [7]), 0.0087 µM; in experiment [3] (setting [8]) it was 0.75 µM.

For the compound `Cc1ccccc1CN1CCC(CNC(=O)NC(=N)NCc2cccc3ccccc23)CC1` [Example 65, 4-({[({Imino[(1-naphthylmethyl)amino]methyl}amino)carbonyl]amino}methyl)-1-(2-methylbenzyl)piperidine], the Ki came out at 0.69 µM on human 5-HT1a receptors (setting [4]); 2.49 µM in experiment [1] (setting [5]); 0.029 µM in experiment [2] (setting [6]); 0.0095 µM on human 5HT2a receptors (setting [7]); 4.18 µM in experiment [3] (setting [8]).

Consider `N=C(NCc1cccc2ccccc12)NC(=O)NCC1CCN(Cc2ccccc2)CC1` [Example 75, 1-Benzyl-4-({[({imino[(1-naphthylmethyl)amino]methyl}amino)carbonyl]amino}methyl)piperidine], for which the Ki at human 5-HT1a receptors (setting [4]) is 0.34 µM; in experiment [1] (setting [5]), 2.3 µM; in experiment [2] (setting [6]) it was 0.029 µM; on human 5HT2a receptors (setting [7]), 0.0049 µM; in experiment [3] (setting [8]), 4.01 µM.

In the case of `COc1cccc(CN2CCC(CNC(=O)NC(=N)NCc3cccc4ccccc34)CC2)c1` [Example 58, 4-({[({Imino[(1-naphthylmethyl)amino]methyl}amino)carbonyl]amino}methyl)-1-(3-methoxybenzyl)piperidine], the Ki came to 0.42 µM at human 5-HT1a receptors (setting [4]); 1.57 µM in experiment [1] (setting [5]); 0.023 µM in experiment [2] (setting [6]); 0.0081 µM at human 5HT2a receptors (setting [7]); 1.37 µM in experiment [3] (setting [8]).

As to `CCOC(=O)N1CCN(C(=O)NC(=N)NCc2cccc3ccccc23)CC1` [Example 51, Ethyl 4-[({imino[(1-naphthylmethyl)amino]methyl}amino)carbonyl]-1-piperazine carboxylate], the Ki is greater than 4 µM on human 5-HT1a receptors (setting [4]); greater than 2.5 µM in experiment [1] (setting [5]); 0.015 µM in experiment [2] (setting [6]); 0.018 µM at human 5HT2a receptors (setting [7]); greater than 10 µM in experiment [3] (setting [8]).

With `N=C(NCc1cccc2ccccc12)NC(=O)N1CCC(C(N)=O)CC1` [Example 8, 1-[({imino[(1-naphthylmethyl)amino]methyl}amino)carbonyl]-4-piperidinecarboxamide], the Ki was greater than 4 µM at human 5-HT1a receptors (setting [4]); greater than 2.5 µM in experiment [1] (setting [5]); 0.012 µM in experiment [2] (setting [6]); 0.04 µM on human 5HT2a receptors (setting [7]); greater than 10 µM in experiment [3] (setting [8]).

As for `CC(=O)NC(=N)NCc1cccc2ccccc12` [Example 3, N-Acetyl-N′-(1-naphthylmethyl)guanidine], the Ki was 1.53 µM on human 5-HT1a receptors (setting [4]); greater than 2.5 µM in experiment [1] (setting [5]); 0.1 µM in experiment [2] (setting [6]); 0.008 µM at human 5HT2a receptors (setting [7]); 2.72 µM in experiment [3] (setting [8]).

As to `N=C(NCc1cccc2ccccc12)NC(=O)NCC1CCN(Cc2cc(F)cc(F)c2)CC1` [Example 74, 1-(3,5-Difluorobenzyl)-4-({[({imino[(1-naphthylmethyl)amino]methyl}amino)carbonyl]amino}methyl)piperidine], the Ki stood at 0.3 µM at human 5-HT1a receptors (setting [4]); 1.34 µM in experiment [1] (setting [5]); 0.028 µM in experiment [2] (setting [6]); 0.0041 µM at human 5HT2a receptors (setting [7]); 1.91 µM in experiment [3] (setting [8]).

Regarding `N=C(NCc1cccc2ccccc12)NC(=O)NC1CCc2ccccc21` (stereo not shown) [Example 43, 1-({[{[(2,3-Dihydro-1H-inden-1-ylamino)carbonyl]amino}(imino)methyl]amino}methyl)naphthalene], the Ki at human 5-HT1a receptors (setting [4]) came to 0.63 µM; in experiment [1] (setting [5]), 2.19 µM; in experiment [2] (setting [6]) it was 0.022 µM; at human 5HT2a receptors (setting [7]), 0.0048 µM; in experiment [3] (setting [8]), 0.9 µM.

`COc1cccc(CCNC(=O)NC(=N)NCc2cccc3ccccc23)c1OC` [Example 53, 1-({[({[(2,3-Dimethoxyphenethyl)amino]carbonyl}amino)(imino)methyl]amino}methyl)naphthalene]: the Ki at human 5-HT1a receptors (setting [4]) is 0.17 µM; in experiment [1] (setting [5]), 0.29 µM; in experiment [2] (setting [6]), 0.062 µM; at human 5HT2a receptors (setting [7]) it was 0.0008 µM; in experiment [3] (setting [8]) it was 1.87 µM.

In the case of `N=C(NCc1cccc2ccccc12)NC(=O)NCC1CCN(Cc2ccc3c(c2)OCO3)CC1` [Example 66, 1-(1,3-Benzodioxol-5-ylmethyl)-4-({[({imino[(1-naphthylmethyl)amino]methyl}amino)carbonyl]amino}methyl)piperidine], the inhibitory constant (Ki) on human 5-HT1a receptors (setting [4]) was 0.43 µM; in experiment [1] (setting [5]), 1.58 µM; in experiment [2] (setting [6]) it was 0.031 µM; at human 5HT2a receptors (setting [7]) it was 0.0042 µM; in experiment [3] (setting [8]) it was 3.7 µM.

Turning to `COc1ccc(CN2CCC(CNC(=O)NC(=N)NCc3cccc4ccccc34)CC2)cc1` [Example 71, 4-({[({Imino[(1-naphthylmethyl)amino]methyl}amino)carbonyl]amino}methyl)-1-(4-methoxybenzyl)piperidine], the Ki was 0.6 µM on human 5-HT1a receptors (setting [4]); 1.47 µM in experiment [1] (setting [5]); 0.019 µM in experiment [2] (setting [6]); 0.0013 µM at human 5HT2a receptors (setting [7]); 1.37 µM in experiment [3] (setting [8]).

For `CCOc1ccccc1CNC(=N)NC(=O)N1CCC(Nc2ccccc2)CC1` [Example 78, N-[(4-Anilino-1-piperidinyl)carbonyl]-N′-(2-ethoxybenzyl)guanidine], the Ki was greater than 4 µM on human 5-HT1a receptors; greater than 2.5 µM in experiment [1]; 0.034 µM in experiment [2]; 0.17 µM at human 5HT2a receptors; 6.87 µM in experiment [3].

`N=C(NCc1cccc2ccccc12)NC(=O)N[C@H]1C[C@@H]2CC[C@H]1C2` [Example 23, 1-({[({[(1S,2S,4R)Bicyclo[2.2.1]hept-2-ylamino]carbonyl}amino) (imino)methyl]amino}methyl)naphthalene]: the Ki stood at 0.22 µM at human 5-HT1a receptors (setting [4]); 0.28 µM in experiment [1] (setting [5]); 0.0097 µM in experiment [2] (setting [6]); 0.004 µM at human 5HT2a receptors (setting [7]); 1.93 µM in experiment [3] (setting [8]).
